Assay results from US11491120B2, “Pharmacological prophylactics against stress-induced affective disorders in females” (The Trustees of Columbia University in the City of New York, priority 2017, dated 2022).
Entries after “also recorded” stand apart in the source; their conditions may differ.

Columns and labels:
female 129S6/SvEv mice [1] = assay: Contextual fear conditioning (CFC), 3-shock, freezing in training and context re-exposure
female 129S6/SvEv mice [2] = assay: Elevated plus maze (EPM); type: in vivo, mouse; conditions: 0.025 mg/kg, 1 week prophylactic drug, learned helplessness stress
Description: The EPM was administered as previously described (58), with the exception that videos were scored using ANY-maze behavioral tracking software (Stoelting Co., Wood Dale, Ill.).
We have previously shown that prophylactic (R,S)-ketamine attenuates helpless behavior in male mice (18). To validate these findings in females, female mice were administered saline, (R,S)-ketamine, or (2R,6R)-HNK one week prior to LH training (FIG. 4A). Two weeks later, mice were tested for escape latency and for depressive- and anxiety-like behaviors in the FST and elevated plus maze (EPM). CFC was again administered following these behavioral assays.

female 129S6/SvEv mice [3] = assay: Forced swim test after 10-day chronic immobilization stress (CIS); type: in vivo, mouse; conditions: 0.025 mg/kg, 1 week prophylactic drug
Description: The CIS procedure induces a depressive-like phenotype in test subjects and has both predictive and face validity (54). Here, we used an adapted protocol from Ramirez et al. (55).
As previously tested in male mice (18), we validated our findings in a model of chronic stress. […] Drug dosages were chosen based on results from FIG. 1 and used for the remainder of the project unless otherwise specified. One week later, a 10-day CIS protocol was administered. Subsequently, mice were tested in the FST.

[4] = Contextual Fear Conditioning Training, Dunnett test Sal vs. drug (10), 1 week prophylactic drug
[5] = Ovariectomized cohort, 1 week prophylactic drug, Contextual Fear Conditioning Re-exposure, FIG. 10B, Sham mice, K (10), (2R,6R)-HNK (0.025)
[6] = Ovariectomized cohort, 1 week prophylactic drug, Contextual Fear Conditioning Re-exposure, FIG. 10C, Sham mice, K (10), (2R,6R)-HNK (0.025)
[7] = Ovariectomized, E2/P4 replacement, 1 week prophylactic drug, Contextual Fear Conditioning Training, FIG. 10D, Vehicle vs E2/P4, same drug, K (10), (2R,6R)-HNK (0.025)
[8] = Sal vs. (2R,6R)-HNK (0.025), Fisher's PLSD, 1 week prophylactic drug, learned helplessness stress, Contextual Fear Conditioning Re-exposure
[9] = Sal vs. (2R,6R)-HNK (0.025), Fisher's PLSD, Stress, antidepressant drug/Contextual Fear Conditioning Training

## N[C@@]1(c2ccccc2Cl)CCC[C@@H](O)C1=O [(2R,6R)-HNK, (2R,6R)-hydroxynorketamine]
Female 129S6/SvEv mice [1]; [4]
  p, Freezing (min 1-5): 0.1798
  p, Freezing (min 4): 0.4387
  p, Freezing (min 5): 0.3423
Female 129S6/SvEv mice [1]; Ovariectomized cohort, 1 week prophylactic drug, Contextual Fear Conditioning Re-exposure, FIG. 10B, OVX mice, K (10), (2R,6R)-HNK (0.025)
  p, Freezing (min 1-5), Fisher's PLSD, OVX Sal vs OVX drug: 0.2290
Female 129S6/SvEv mice [1]; [5]
  * (significance), Freezing (min 1-5), Fisher's PLSD, Sham Sal vs Sham drug: * (* p<0.05)
  p, Freezing (min 1-5), Fisher's PLSD, Sham Sal vs Sham drug: 0.0244
Female 129S6/SvEv mice [1]; Ovariectomized cohort, 1 week prophylactic drug, Contextual Fear Conditioning Re-exposure, FIG. 10B, Sham vs OVX, same drug, K (10), (2R,6R)-HNK (0.025)
  p, Freezing (min 1-5), Fisher's PLSD, Sham drug vs OVX drug: 0.3764
Female 129S6/SvEv mice [1]; Ovariectomized cohort, 1 week prophylactic drug, Contextual Fear Conditioning Re-exposure, FIG. 10C, OVX mice, K (10), (2R,6R)-HNK (0.025)
  p, Freezing Average (min 1-5), Fisher's PLSD, OVX Sal vs OVX drug: 0.2290
Female 129S6/SvEv mice [1]; [6]
  * (significance), Freezing Average (min 1-5), Fisher's PLSD, Sham Sal vs Sham drug: * (* p<0.05)
  p, Freezing Average (min 1-5), Fisher's PLSD, Sham Sal vs Sham drug: 0.0244
Female 129S6/SvEv mice [1]; Ovariectomized cohort, 1 week prophylactic drug, Contextual Fear Conditioning Re-exposure, FIG. 10C, Sham vs OVX, same drug, K (10), (2R,6R)-HNK (0.025)
  p, Freezing Average (min 1-5), Fisher's PLSD, Sham drug vs OVX drug: 0.3764
Female 129S6/SvEv mice [1]; Ovariectomized, E2/P4 replacement, 1 week prophylactic drug, Contextual Fear Conditioning Re-exposure, FIG. 10E, E2/P4 mice, K (10), (2R,6R)-HNK (0.025)
  p, Freezing (min 1-5), Fisher's PLSD, E2/P4 Sal vs E2/P4 drug: 0.4219
Female 129S6/SvEv mice [1]; Ovariectomized, E2/P4 replacement, 1 week prophylactic drug, Contextual Fear Conditioning Re-exposure, FIG. 10E, Vehicle (hormone) mice, K (10), (2R,6R)-HNK (0.025)
  p, Freezing (min 1-5), Fisher's PLSD, Vehicle Sal vs Vehicle drug: 0.9324
Female 129S6/SvEv mice [1]; Ovariectomized, E2/P4 replacement, 1 week prophylactic drug, Contextual Fear Conditioning Re-exposure, FIG. 10E, Vehicle vs E2/P4, same drug, K (10), (2R,6R)-HNK (0.025)
  p, Freezing (min 1-5), Fisher's PLSD, Vehicle drug vs E2/P4 drug: 0.5588
Female 129S6/SvEv mice [1]; Ovariectomized, E2/P4 replacement, 1 week prophylactic drug, Contextual Fear Conditioning Re-exposure, FIG. 10F, E2/P4 mice, K (10), (2R,6R)-HNK (0.025)
  p, Freezing Average (min 1-5), Fisher's PLSD, E2/P4 Sal vs E2/P4 drug: 0.4219
Female 129S6/SvEv mice [1]; Ovariectomized, E2/P4 replacement, 1 week prophylactic drug, Contextual Fear Conditioning Re-exposure, FIG. 10F, Vehicle (hormone) mice, K (10), (2R,6R)-HNK (0.025)
  p, Freezing Average (min 1-5), Fisher's PLSD, Vehicle Sal vs Vehicle drug: 0.9324
Female 129S6/SvEv mice [1]; Ovariectomized, E2/P4 replacement, 1 week prophylactic drug, Contextual Fear Conditioning Re-exposure, FIG. 10F, Vehicle vs E2/P4, same drug, K (10), (2R,6R)-HNK (0.025)
  p, Freezing Average (min 1-5), Fisher's PLSD, Vehicle drug vs E2/P4 drug: 0.5588
Female 129S6/SvEv mice [1]; Ovariectomized, E2/P4 replacement, 1 week prophylactic drug, Contextual Fear Conditioning Training, FIG. 10D, E2/P4 mice, K (10), (2R,6R)-HNK (0.025)
  p, Freezing (min 1-5), Fisher's PLSD, E2/P4 Sal vs E2/P4 drug: 0.7901
Female 129S6/SvEv mice [1]; Ovariectomized, E2/P4 replacement, 1 week prophylactic drug, Contextual Fear Conditioning Training, FIG. 10D, Vehicle (hormone) mice, K (10), (2R,6R)-HNK (0.025)
  p, Freezing (min 1-5), Fisher's PLSD, Vehicle Sal vs Vehicle drug: 0.6290
Female 129S6/SvEv mice [1]; [7]
  * (significance), Freezing (min 1-5), Fisher's PLSD, Vehicle drug vs E2/P4 drug: ** (** p<0.01)
  p, Freezing (min 1-5), Fisher's PLSD, Vehicle drug vs E2/P4 drug: 0.0067
Female 129S6/SvEv mice [1]; [8]
  *, Freezing (min 1): * (* p<0.05)
  p, Freezing (min 1): 0.0399
Female 129S6/SvEv mice [1]; Sal vs. (2R,6R)-HNK (0.025), Fisher's PLSD, 3 day prophylactic drug/Contextual Fear Conditioning Training
  p, Freezing (min 5): 0.9911
Female 129S6/SvEv mice [1]; [9]
  p, Freezing (min 1-5): 0.2199
  p, Freezing (min 5): 0.0731
Female 129S6/SvEv mice [1]; Sal vs. (2R,6R)-HNK (0.025), t-test, 24 hour prophylactic drug/Contextual Fear Conditioning Re-exposure
  p, Freezing Average (min 1-5): 0.2334
Female 129S6/SvEv mice [1]; ovariectomized mice, hormone replacement
  Freezing during CFC Training, E2/P4+drug vs vehicle+drug: froze significantly more; also recorded: exhibited increased freezing
Female 129S6/SvEv mice [1]; ovariectomized mice, vehicle condition
  Freezing during CFC re-exposure vs saline: froze at comparable levels
Female 129S6/SvEv mice [1]; single i.p. injection 1 week before 3-shock CFC, all doses, female mice
  Freezing during re-exposure to the CFC training context vs saline: do not significantly alter freezing; also recorded: did not alter overall freezing
Female 129S6/SvEv mice [1]; single injection 1 week before stressor, female mice
  Attenuation of learned fear: do not alter learned fear; also recorded: do not attenuate learned fear
Female 129S6/SvEv mice [2]
  P, Sal vs. drug, Fisher's PLSD: Time in Closed Arms Average (min 1-6), Elevated Plus Maze: 0.3285
  P, Sal vs. drug, Fisher's PLSD: Time in Open Arms Average (min 1-6), Elevated Plus Maze: 0.9855
Female 129S6/SvEv mice [3]
  * (significance), Sal vs. drug, Fisher's PLSD: Immobility Time (min 1), Forced Swim Test Day 1: *** (*** p<0.0001)
  * (significance), Sal vs. drug, Fisher's PLSD: Immobility Time (min 1), Forced Swim Test Day 2: ** (** p<0.01)
  * (significance), Sal vs. drug, Fisher's PLSD: Immobility Time (min 2), Forced Swim Test Day 1: *** (*** p<0.0001)
  * (significance), Sal vs. drug, Fisher's PLSD: Immobility Time (min 3), Forced Swim Test Day 1: *** (*** p<0.0001)
  * (significance), Sal vs. drug, Fisher's PLSD: Immobility Time (min 4), Forced Swim Test Day 1: *** (*** p<0.0001)
  * (significance), Sal vs. drug, Fisher's PLSD: Immobility Time (min 5), Forced Swim Test Day 1: *** (*** p<0.0001)
  * (significance), Sal vs. drug, Fisher's PLSD: Immobility Time (min 5), Forced Swim Test Day 2: * (* p<0.05)
  * (significance), Sal vs. drug, Fisher's PLSD: Immobility Time (min 6), Forced Swim Test Day 1: *** (*** p<0.0001)
  * (significance), Sal vs. drug, Fisher's PLSD: Immobility Time (min 6), Forced Swim Test Day 2: ** (** p<0.01)
  * (significance), Sal vs. drug, Fisher's PLSD: Immobility Time Average (min 3-6), Forced Swim Test Day 2: * (* p<0.05)
  * (significance), Sal vs. drug, Fishers PLSD: Immobility Time Average (min 1-6), Forced Swim Test Day 1: *** (*** p<0.0001)
  p, Sal vs. drug, Fisher's PLSD: Immobility Time (min 1), Forced Swim Test Day 1: <0.0001
  p, Sal vs. drug, Fisher's PLSD: Immobility Time (min 1), Forced Swim Test Day 2: 0.0073
  p, Sal vs. drug, Fisher's PLSD: Immobility Time (min 2), Forced Swim Test Day 1: <0.0001
  p, Sal vs. drug, Fisher's PLSD: Immobility Time (min 2), Forced Swim Test Day 2: 0.8092
  p, Sal vs. drug, Fisher's PLSD: Immobility Time (min 3), Forced Swim Test Day 1: <0.0001
  p, Sal vs. drug, Fisher's PLSD: Immobility Time (min 4), Forced Swim Test Day 1: <0.0001
  p, Sal vs. drug, Fisher's PLSD: Immobility Time (min 5), Forced Swim Test Day 1: <0.0001
  p, Sal vs. drug, Fisher's PLSD: Immobility Time (min 5), Forced Swim Test Day 2: 0.0328
  p, Sal vs. drug, Fisher's PLSD: Immobility Time (min 6), Forced Swim Test Day 1: <0.0001
  p, Sal vs. drug, Fisher's PLSD: Immobility Time (min 6), Forced Swim Test Day 2: 0.0069
  p, Sal vs. drug, Fisher's PLSD: Immobility Time Average (min 3-6), Forced Swim Test Day 2: 0.0177
  p, Sal vs. drug, Fishers PLSD: Immobility Time Average (min 1-6), Forced Swim Test Day 1: <0.0001
